System: HCV 1b-377-neo replicon cells
Test: HCV replicon assay, HCV 1b-377-neo replicon cells (1b FRET)
Format: cell-based, Hepatitis C virus genotype 1b
Settings: Hepatitis C virus, HCV 1b-377-neo replicon cells; HCV 1b genotype; read-out: EC50 range against HCV 1b (Table 2, Range)
In short: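 FRET-based replicon assay in HCV 1b-377-neo cells, including a comparison line carrying the NS5A Y2065H mutation that confers resistance to a reference compound.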

SMILES	EC50
COC(=O)N[C@H](C(=O)N1CC(F)(F)C[C@H]1c1nc(-c2ccc(-c3ccc(-c4cnc([C@@H]5CCCN5C(=O)[C@@H](NC(=O)OC)C(C)C)[nH]4)c(F)c3)cc2)c[nH]1)C(C)C [Example J14e, methyl ((1S)-1-(((2S)-4,4-difluoro-2-(4-(3′-fluoro-4′-(2-((2S)-1-((2S)-2-((methoxycarbonyl)amino)-3-methylbutanoyl)-2-pyrrolidinyl)-1H-imidazol-4-yl)-4-biphenylyl)-1H-imidazol-2-yl)-1-pyrrolidinyl)carbonyl)-2-methylpropyl)carbamate]	0.001 to 0.999 nM
CCN(CC)[C@@H](C(=O)N1CC(F)(F)C[C@H]1c1nc(-c2ccc(-c3ccc(-c4cnc([C@@H]5CCCN5C(=O)[C@@H](c5ccccc5)N(CC)CC)[nH]4)c(F)c3)cc2)c[nH]1)c1ccccc1 [Example J14e.1, (1R)-2-((2S)-2-(4-(4′-(2-((2S)-1-((2R)-2-(diethylamino)-2-phenylacetyl)-4,4-difluoro-2-pyrrolidinyl)-1H-imidazol-4-yl)-3-fluoro-4-biphenylyl)-1H-imidazol-2-yl)-1-pyrrolidinyl)-N,N-diethyl-2-oxo-1-phenylethanamine]	0.001 to 0.999 nM
COC(=O)N[C@H](C(=O)N1CCC[C@H]1c1ncc(-c2ccc(-c3ccc(-c4nc([C@@H]5CCCN5C(=O)[C@@H](NC(=O)OC)C(C)C)[nH]c4CO)cc3)cc2)[nH]1)C(C)C [Example J14f, methyl ((1S)-1-(((2S)-2-(4-(hydroxymethyl)-5-(4′-(2-((2S)-1-((2S)-2-((methoxycarbonyl)amino)-3-methylbutanoyl)-2-pyrrolidinyl)-1H-imidazol-4-yl)-4-biphenylyl)-1H-imidazol-2-yl)-1-pyrrolidinyl)carbonyl)-2-methylpropyl)carbamate]	0.001 to 0.999 nM
COC(=O)N[C@@H](C)C(=O)N1CCC[C@H]1c1ncc(-c2ccc(-c3ccc(-c4nc([C@@H]5CCCN5C(=O)[C@H](C)NC(=O)OC)[nH]c4CO)cc3)cc2)[nH]1 [Example J14f.1, methyl ((1S)-2-((2S)-2-(4-(4′-(4-(hydroxymethyl)-2-((2S)-1-(N-(methoxycarbonyl)-L-alanyl)-2-pyrrolidinyl)-1H-imidazol-5-yl)-4-biphenylyl)-1H-imidazol-2-yl)-1-pyrrolidinyl)-1-methyl-2-oxoethyl)carbamate]	1 to 99 nM
COC(=O)N[C@@H](C(=O)N1CCC[C@H]1c1ncc(-c2ccc(-c3ccc(-c4[nH]c([C@@H]5CCCN5C(=O)[C@H](NC(=O)OC)c5ccccc5)nc4C(=O)OC)cc3)cc2)[nH]1)c1ccccc1 [Example J16, methyl 2-((2S)-l-((2R)-2-((methoxycarbonyl)amino)-2-phenylacetyl)-2-pyrrolidinyl)-5-(4′-(2-((2S)-1-((2R)-2-((methoxycarbonyl)amino)-2-phenylacetyl)-2-pyrrolidinyl)-1H-imidazol-5-yl)-4-biphenylyl)-1H-imidazole-4-carboxylate]	0.001 to 0.999 nM
COC(=O)c1nc([C@@H]2CCCN2C(=O)[C@@H](c2ccccc2)N(C)C)[nH]c1-c1ccc(-c2ccc(-c3cnc([C@@H]4CCCN4C(=O)[C@@H](c4ccccc4)N(C)C)[nH]3)cc2)cc1 [Example J17, methyl 2-((2S)-l-((2R)-2-(dimethylamino)-2-phenylacetyl)-2-pyrrolidinyl)-5-(4′-(2-((2S)-1-((2R)-2-(dimethylamino)-2-phenylacetyl)-2-pyrrolidinyl)-1H-imidazol-5-yl)-4-biphenylyl)-1H-imidazole-4-carboxylate]	0.001 to 0.999 nM
COC(=O)c1nc([C@@H]2CCCN2C(=O)[C@@H](c2ccccc2)N2CCCCC2)[nH]c1-c1ccc(-c2ccc(-c3cnc([C@@H]4CCCN4C(=O)[C@@H](c4ccccc4)N4CCCCC4)[nH]3)cc2)cc1 [Example J18, methyl 2-((2S)-1-((2R)-2-phenyl-2-(1-piperidinyl)acetyl)-2-pyrrolidinyl)-5-(4′-(2-((2S)-1-((2R)-2-phenyl-2-(1-piperidinyl)acetyl)-2-pyrrolidinyl)-1H-imidazol-5-yl)-4-biphenylyl)-1H-imidazole-4-carboxylate]	0.001 to 0.999 nM
CCOC(=O)c1nc([C@@H]2CCCN2C(=O)[C@H](NC(=O)OC)c2ccccc2)[nH]c1-c1ccc(-c2ccc(-c3cnc([C@@H]4CCCN4C(=O)[C@H](NC(=O)OC)c4ccccc4)[nH]3)cc2)cc1 [Example J19, ethyl 2-((2S)-1-((2R)-2-((methoxycarbonyl)amino)-2-phenylacetyl)-2-pyrrolidinyl)-5-(4′-(2-((2S)-1-((2R)-2-((mcthoxycarbonyl)amino)-2-phenylacetyl)-2-pyrrolidinyl)-1H-imidazol-5-yl)-4-biphenylyl)-1H-imidazole-4-carboxylate]	0.001 to 0.999 nM
CCOC(=O)c1nc([C@@H]2CCCN2C(=O)[C@@H](c2ccccc2)N(C)C)[nH]c1-c1ccc(-c2ccc(-c3cnc([C@@H]4CCCN4C(=O)[C@@H](c4ccccc4)N(C)C)[nH]3)cc2)cc1 [Example J20, ethyl 2-((2S)-l-((2R)-2-(dimethylamino)-2-phenylacetyl)-2-pyrrolidinyl)-5-(4-(2-((2S)-1-((2R)-2-(dimethylamino)-2-phenylacetyl)-2-pyrrolidinyl)-1H-imidazol-5-yl)-4-biphenylyl)-1H-imidazole-4-carboxylate]	0.001 to 0.999 nM
COC(=O)N[C@@H](C(=O)N1CCC[C@H]1c1ncc(-c2ccc(-c3ccc(-c4[nH]c([C@@H]5CCCN5C(=O)[C@H](NC(=O)OC)c5ccccc5)nc4C(=O)OCc4ccccc4)cc3)cc2)[nH]1)c1ccccc1 [Example J21, benzyl 2-((2S)-1-((2R)-2-((methoxycarbonyl)amino)-2-phenylacetyl)-2-pyrrolidinyl)-5-(4′-(2-((2S)-1-((2R)-2-((methoxycarbonyl)amino)-2-phenylacetyl)-2-pyrrolidinyl)-1H-imidazol-5-yl)-4-biphenylyl)-1H-imidazole-4-carboxylate]	0.001 to 0.999 nM
CN(C)[C@@H](C(=O)N1CCC[C@H]1c1ncc(-c2ccc(-c3ccc(-c4[nH]c([C@@H]5CCCN5C(=O)[C@@H](c5ccccc5)N(C)C)nc4C(=O)OCc4ccccc4)cc3)cc2)[nH]1)c1ccccc1 [Example J22, benzyl 2-((2S)-1-((2R)-2-(dimethylamino)-2-phenylacetyl)-2-pyrrolidinyl)-5-(4′-(2-((2S)-1-((2R)-2-(dimethylamino)-2-phenylacetyl)-2-pyrrolidinyl)-1H-imidazol-5-yl)-4-biphenylyl)-1H-imidazole-4-carboxylate]	0.001 to 0.999 nM
O=C(OCc1ccccc1)c1nc([C@@H]2CCCN2C(=O)[C@@H](c2ccccc2)N2CCCCC2)[nH]c1-c1ccc(-c2ccc(-c3cnc([C@@H]4CCCN4C(=O)[C@@H](c4ccccc4)N4CCCCC4)[nH]3)cc2)cc1 [Example J23, benzyl 2-((2S)-1-((2R)-2-phenyl-2-(1-piperidinyl)acetyl)-2-pyrrolidinyl)-5-(4′-(2-((2S)-1-((2R)-2-phenyl-2-(1-piperidinyl)acetyl)-2-pyrrolidinyl)-1H-imidazol-5-yl)-4-biphenylyl)-1H-imidazole-4-carboxylate]	0.001 to 0.999 nM
COC(=O)N[C@@H](C)C(=O)N1CCC[C@H]1c1nc(C(=O)OCc2ccccc2)c(-c2ccc(-c3ccc(-c4cnc([C@@H]5CCCN5C(=O)[C@@H](C)NC(=O)OC)[nH]4)cc3)cc2)[nH]1 [Example J24, benzyl 2-((2S)-l-(N-(methoxycarbonyl)-L-alanyl)-2-pyrrolidinyl)-5-(4-(2-((2S)-l-(N-(methoxycarbonyl)-L-alanyl)-2-pyrrolidinyl)-1H-imidazol-5-yl)-4-biphenylyl)-1H-imidazole-4-carboxylate]	0.001 to 0.999 nM
CNC(=O)c1nc([C@@H]2CCCN2C(=O)[C@H](NC(=O)OC)c2ccccc2)[nH]c1-c1ccc(-c2ccc(-c3cnc([C@@H]4CCCN4C(=O)[C@H](NC(=O)OC)c4ccccc4)[nH]3)cc2)cc1 [Example J25, methyl ((1R)-2-((2S)-2-(5-(4′-(2-((2S)-1-((2R)-2-((methoxycarbonyl)amino)-2-phenylacetyl)-2-pyrrolidinyl)-1H-imidazol-5-yl)-4-biphenylyl)-4-(methylcarbamoyl)-1H-imidazol-2-yl)-1-pyrrolidinyl)-2-oxo-1-phenylethyl)carbamate]	0.001 to 0.999 nM
CNC(=O)c1nc([C@@H]2CCCN2C(=O)[C@@H](c2ccccc2)N(C)C)[nH]c1-c1ccc(-c2ccc(-c3cnc([C@@H]4CCCN4C(=O)[C@@H](c4ccccc4)N(C)C)[nH]3)cc2)cc1 [Example J26]	0.001 to 0.999 nM
CNC(=O)c1nc([C@@H]2CCCN2C(=O)[C@@H](c2ccccc2)N2CCCCC2)[nH]c1-c1ccc(-c2ccc(-c3cnc([C@@H]4CCCN4C(=O)[C@@H](c4ccccc4)N4CCCCC4)[nH]3)cc2)cc1 [Example J27, N-methyl-2-((2S)-1-((2R)-2-phenyl-2-(1-piperidinyl)acetyl)-2-pyrrolidinyl)-5-(4′-(2-((2S)-1-((2R)-2-phenyl-2-(1-piperidinyl)acetyl)-2-pyrrolidinyl)-1H-imidazol-5-yl)-4-biphenylyl)-1H-imidazole-4-carboxamide]	0.001 to 0.999 nM
CNC(=O)c1nc([C@@H]2CCCN2C(=O)[C@H](C)NC(=O)OC)[nH]c1-c1ccc(-c2ccc(-c3cnc([C@@H]4CCCN4C(=O)[C@@H](C)NC(=O)OC)[nH]3)cc2)cc1 [Example J28, methyl ((1S)-2-((2S)-2-(5-(4′-(2-((2S)-1-(N-(methoxycarbonyl)-L-alanyl)-2-pyrrolidinyl)-4-(methylcarbamoyl)-1H-imidazol-5-yl)-4-biphenylyl)-1H-imidazol-2-yl)-l-pyrrolidinyl)-l-methyl-2-oxoethyl)carbamate]	1 to 99 nM
COC(=O)N[C@@H](C(=O)N1CCC[C@H]1c1ncc(-c2ccc(-c3ccc(-c4[nH]c([C@@H]5CCCN5C(=O)[C@H](NC(=O)OC)c5ccccc5)nc4C(N)=O)cc3)cc2)[nH]1)c1ccccc1 [Example J29, methyl ((1R)-2-((2S)-2-(4-carbamoyl-5-(4′-(2-((2S)-1-((2R)-2-((methoxycarbonyl)amino)-2-phenylacetyl)-2-pyrrolidinyl)-1H-imidazol-5-yl)-4-biphenylyl)-1H-imidazol-2-yl)-1-pyrrolidinyl)-2-oxo-1-phenylethyl)carbamate]	0.001 to 0.999 nM
COC(=O)N[C@@H](C(=O)N1CCC[C@H]1c1ncc(-c2ccc(-c3ccc(-c4[nH]c([C@@H]5CCCN5C(=O)[C@H](NC(=O)OC)c5ccccc5)nc4C(=O)O)cc3)cc2)[nH]1)c1ccccc1 [Example J30]	1 to 99 nM
